Earlier results in PMC8448819, “The Arabidopsis MIK2 receptor elicits immunity by sensing a conserved signature from phytocytokines and microbes” (Nature Communications, 2021).

Experiments:
[1] = system: Arabidopsis WT (Col-0) seedlings; conditions: RLK7 activation by PIP1; cited from earlier work
Excerpt: (§1) Plant plasma membrane-resident RKs perceive diverse exogenous and endogenous signals via the extracellular domain and activate intracellular responses through the cytoplasmic kinase domain[1]–[3]. The chimeric receptors with the swapped extracellular and intracellular domains between different RKs have been used to study the specificity of signal perception and signaling activation[48]–[52]. The extracellular domains of RKs determine the ligand-binding specificity[50],[51],[53]. The intracellular kinase domains of different RKs also trigger specific responses. For example, the chimeric rec ...

Arabidopsis WT seedlings = conditions: RLK7 activation by PIP1; cited from earlier work
Excerpt: as §1

## RLASGP(OH)SPRGRGH [PIP1, secreted peptide, ligand of RLK7]
[1]
  root growth: moderately inhibits root growth
Arabidopsis WT seedlings
  ROS production: weakly induces ROS production
